This note sets out measurements from patent publication US7446199B2, “Compositions useful as inhibitors of protein kinases” (Vertex Pharmaceuticals Incorporated, priority 2003, dated 2008).

For test [1], the target named is GSK-3β, (AA 1-420) (Homo sapiens, UniProt P49841). As to the kind of experiment: GSK-3 inhibition assay, coupled enzyme system. The class given is biochemical. The note with it: 20 μM ATP, 300 μM peptide, 20 nM GSK-3b, 30° C.; read-out: Ki values (GSK3). Put shortly: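 Pyruvate kinase/lactate dehydrogenase-coupled NADH assay with 20 nM enzyme, 20 μM ATP and 300 μM peptide in HEPES pH 7.5, 1.5% DMSO, 30° C. Compound (0.002–30 μM, 12-point) preincubated 10 min before ATP start; rates over 10 min gave Ki.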
Sequence of GSK-3β, (AA 1-420) (P49841 whole entry, the tested form may be a part): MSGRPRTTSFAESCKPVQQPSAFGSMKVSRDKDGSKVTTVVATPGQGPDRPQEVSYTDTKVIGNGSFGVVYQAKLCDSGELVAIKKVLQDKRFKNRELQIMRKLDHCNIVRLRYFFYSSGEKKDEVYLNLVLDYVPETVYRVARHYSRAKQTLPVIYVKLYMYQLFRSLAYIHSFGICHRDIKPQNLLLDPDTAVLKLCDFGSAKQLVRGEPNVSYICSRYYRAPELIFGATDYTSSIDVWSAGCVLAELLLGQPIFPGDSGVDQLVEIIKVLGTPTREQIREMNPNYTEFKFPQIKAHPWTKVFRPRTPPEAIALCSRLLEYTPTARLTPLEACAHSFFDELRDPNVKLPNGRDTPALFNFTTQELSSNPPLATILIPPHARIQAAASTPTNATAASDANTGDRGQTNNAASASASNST

For test [2], the target named is KDR (Homo sapiens, UniProt P35968). As to the kind of experiment: KDR enzyme assay, coupled enzyme assay. The note with it: 300 μM ATP, 10 μM poly E4Y, 30 nM KDR, 37° C. The class given is biochemical. The protocol:
Compounds were screened for their ability to inhibit KDR using a standard coupled enzyme assay (Fox et al., Protein Sci., (1998) 7, 2249). Assays were carried out in a mixture of 200 mM HEPES 7.5, 10 mM MgCl2, 25 mM NaCl, 1 mM DTT and 1.5% DMSO. Final substrate concentrations in the assay were 300 μM ATP (Sigma Chemicals) and 10 μM poly E4Y (Sigma). Assays were carried out at 37° C. and 30 nM KDR. Final concentrations of the components of the coupled enzyme system were 2.5 mM phosphoenolpyruvate, 200 μM NADH, 30 μg/ML pyruvate kinase and 10 μg/ml lactate dehydrogenase.
An assay stock buffer solution was prepared containing all of the reagents listed above, with the exception of ATP and the test compound of interest. 177 μl of the stock solution was placed in a 96 well plate followed by addition of 3 μl of 2 mM DMSO stock containing the test compound (final compound concentration 30 μM). The plate was preincubated for about 10 minutes at 37° C. and the reaction initiated by addition of 20 μl of ATP (final concentration 300 μM). Rates of reaction were obtained using a Molecular Devices plate reader (Sunnyvale, Calif.) over a 5 minute read time at 37° C.

Where “and” joins values, the source holds several entries; their conditions need not be identical. Identical values can stand only once. Where only a bound is given, the exact number is not on record here.

Sequence of KDR (P35968 20-1356): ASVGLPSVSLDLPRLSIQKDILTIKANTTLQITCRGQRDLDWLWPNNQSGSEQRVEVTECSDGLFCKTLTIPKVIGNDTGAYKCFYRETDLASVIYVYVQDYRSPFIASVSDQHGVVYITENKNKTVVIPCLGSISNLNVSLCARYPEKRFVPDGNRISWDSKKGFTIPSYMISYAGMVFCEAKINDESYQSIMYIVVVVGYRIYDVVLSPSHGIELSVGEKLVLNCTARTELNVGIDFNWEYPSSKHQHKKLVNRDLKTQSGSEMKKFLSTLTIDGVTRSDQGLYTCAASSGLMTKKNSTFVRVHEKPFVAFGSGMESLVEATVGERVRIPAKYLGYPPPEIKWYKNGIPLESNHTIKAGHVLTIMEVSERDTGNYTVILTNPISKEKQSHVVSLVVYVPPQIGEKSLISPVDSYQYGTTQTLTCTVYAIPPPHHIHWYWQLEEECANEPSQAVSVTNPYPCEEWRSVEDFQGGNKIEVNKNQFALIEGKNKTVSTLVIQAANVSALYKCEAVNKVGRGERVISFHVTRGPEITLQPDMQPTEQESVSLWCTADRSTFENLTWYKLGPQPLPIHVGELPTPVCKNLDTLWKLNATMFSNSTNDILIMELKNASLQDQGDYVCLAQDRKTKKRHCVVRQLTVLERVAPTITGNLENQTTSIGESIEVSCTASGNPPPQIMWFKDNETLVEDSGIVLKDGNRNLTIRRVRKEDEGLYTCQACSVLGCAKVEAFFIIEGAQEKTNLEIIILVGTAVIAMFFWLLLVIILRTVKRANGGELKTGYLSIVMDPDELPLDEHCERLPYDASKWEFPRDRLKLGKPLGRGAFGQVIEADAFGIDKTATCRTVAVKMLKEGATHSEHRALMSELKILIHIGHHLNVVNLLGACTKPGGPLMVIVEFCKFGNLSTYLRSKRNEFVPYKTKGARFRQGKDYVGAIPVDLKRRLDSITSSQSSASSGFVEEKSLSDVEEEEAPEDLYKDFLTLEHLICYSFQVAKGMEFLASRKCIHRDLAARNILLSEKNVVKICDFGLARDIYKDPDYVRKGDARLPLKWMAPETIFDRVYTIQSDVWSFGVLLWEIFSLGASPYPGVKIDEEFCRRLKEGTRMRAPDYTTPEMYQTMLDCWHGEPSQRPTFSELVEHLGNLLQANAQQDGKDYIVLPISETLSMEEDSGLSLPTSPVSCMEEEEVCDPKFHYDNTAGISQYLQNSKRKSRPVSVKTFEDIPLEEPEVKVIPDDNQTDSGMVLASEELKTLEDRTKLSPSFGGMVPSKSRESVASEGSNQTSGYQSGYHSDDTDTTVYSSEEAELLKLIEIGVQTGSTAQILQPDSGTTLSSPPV

As for `O=c1ccc(-c2cnc3[nH]cc(-c4oncc4-c4cccc(F)c4F)c3c2)c[nH]1` [Compound 67, 5-{3-[4-(2,3-Difluoro-phenyl)-isoxazol-5-yl]-1H-pyrrolo [2,3-b]pyridin-5-yl}-1H-pyridin-2-one], the Ki in test [1] and in test [2] was less than 200 nM throughout.
As for `Fc1cccc(-c2cnoc2-c2c[nH]c3ncc(-c4ccc(N5CCNCC5)cc4)cc23)c1F` [Compound 68, 3-[4-(2,3-Difluoro-phenyl)-isoxazol-5-yl]-5-(4-piperazin-1-yl-phenyl)-1H-pyrrolo[2,3-b]pyridine], the Ki in test [1] and in test [2] was less than 200 nM each time.
As for `Fc1ccc(-c2cnc3[nH]cc(-c4oncc4-c4cccc(F)c4F)c3c2)cn1` [Compound 69, 3-[4-(2,3-Difluoro-phenyl)-isoxazol-5-yl]-5-(6-fluoro-pyridin-3-yl)-1H-pyrrolo[2,3-b]pyridine], the Ki in test [1] and in test [2] was less than 200 nM throughout.
For the molecule `CN1CCN(c2ccc(-c3cnc4[nH]cc(-c5oncc5-c5cccc(F)c5F)c4c3)cc2)CC1` [Compound 70, 3-[4-(2,3-Difluoro-phenyl)-isoxazol-5-yl]-5-[4-(4-methyl-piperazin-1-yl)-phenyl]-1H-pyrrolo[2,3-b]pyridine methanesulfonate], the Ki in test [1] and in test [2] was less than 200 nM in each case.
For the molecule `CN1CCN(c2ccc(-c3cnc4[nH]cc(-c5oncc5-c5cccc(F)c5F)c4c3)cn2)CC1` [Compound 71, 3-[4-(2,3-Difluoro-phenyl)-isoxazol-5-yl]-5-[6-(4-methyl-piperazin-1-yl)-pyridin-3-yl]-1H-pyrrolo[2,3-b]pyridine], the Ki in test [1] was 200 to 1000 nM; in test [2], less than 200 nM.
In the same order, the values of `Fc1cccc(-c2cnoc2-c2c[nH]c3ncc(-c4ncccn4)cc23)c1F` [Compound 75, 3-[4-(2,3-Difluoro-phenyl)-isoxazol-5-yl]-5-pyrimidin-2-yl-1H-pyrrolo[2,3-b]pyridine] are 1000 to 12500 nM and 200 to 1000 nM.
In the same order, the values of `Fc1cccc(-c2cnoc2-c2c[nH]c3ncc(-c4c[nH]cn4)cc23)c1F` [Compound 76, 3-[4-(2,3-Difluoro-phenyl)-isoxazol-5-yl]-5-(3H-imidazol-4-yl)-1H-pyrrolo[2,3-b]pyridine] are 200 to 1000 nM and 200 to 1000 nM.
The like results for `Fc1cccc(-c2cnoc2-c2c[nH]c3ncc(-c4cnc5[nH]ccc5c4)cc23)c1F` [Compound 77, 3-[4-(2,3-Difluoro-phenyl)-isoxazol-5-yl]-1H,1′H-[5,5′]bi[pyrrolo[2,3-b]pyridinyl]] were, in that order, 200 to 1000 nM and less than 200 nM.
Regarding `COc1ccnc(-c2cnc3[nH]cc(-c4oncc4-c4cccc(F)c4F)c3c2)c1` [Compound 78, 3-[4-(2,3-Difluoro-phenyl)-isoxazol-5-yl]-5-(4-methoxy-pyridin-2-yl)-1H-pyrrolo[2,3-b]pyridine], the Ki in test [1] was 200 to 1000 nM; in test [2] it was less than 200 nM.
In the same order, the values of `CN(C)C(=O)c1ccc(-c2cnc3[nH]cc(-c4oncc4-c4cccc(F)c4F)c3c2)nc1` [Compound 79, 6-{3-[4-(2,3-Difluoro-phenyl)-isoxazol-5-yl]-1H-pyrrolo [2,3-b]pyridin-5-yl}-N,N-dimethyl-nicotinamide] are 200 to 1000 nM and less than 200 nM.
In the case of `CN(C)c1ccnc(-c2cnc3[nH]cc(-c4oncc4-c4cccc(F)c4F)c3c2)c1` [Compound 80, (2-{3-[4-(2,3-Difluoro-phenyl)-isoxazol-5-yl]-1H-pyrrolo[2,3-b]pyridin-5-yl}-pyridin-4-yl)-dimethyl-amine], the Ki in test [1] is 1000 to 12500 nM; in test [2] it was less than 200 nM.
`CN(C)Cc1cc(Cl)nc(-c2cnc3[nH]cc(-c4oncc4-c4cccc(F)c4F)c3c2)c1` [Compound 81, (2-Chloro-6-{3-[4-(2,3-difluoro-phenyl)-isoxazol-5-yl]-1H-pyrrolo[2,3-b]pyridin-5-yl}-pyridin-4-ylmethyl)-dimethyl-amine]: the Ki in test [1] was 200 to 1000 nM; in test [2] it was less than 200 nM.
The like results for `CN(C)Cc1ccnc(-c2cnc3[nH]cc(-c4oncc4-c4cccc(F)c4F)c3c2)c1` [Compound 82, (2-{3-[4-(2,3-Difluoro-phenyl)-isoxazol-5-yl]-1H-pyrrolo[2,3-b]pyridin-5-yl}-pyridin-4-ylmethyl)-dimethyl-amine] were, in that order, less than 200 nM and less than 200 nM.
Take `Nc1ccnc(-c2cnc3[nH]cc(-c4oncc4-c4cccc(F)c4F)c3c2)c1` [Compound 83, 2-{3-[4-(2,3-Difluoro-phenyl)-isoxazol-5-yl]-1H-pyrrolo [2,3-b]pyridin-5-yl}-pyridin-4-ylamine]: the Ki in test [1] is 200 to 1000 nM; in test [2] it was less than 200 nM.
The like results for `CN(C)Cc1ccc(-c2cnc3[nH]cc(-c4oncc4-c4cccc(F)c4F)c3c2)nc1` [Compound 84, (6-{3-[4-(2,3-Difluoro-phenyl)-isoxazol-5-yl]-1H-pyrrolo[2,3-b]pyridin-5-yl}-pyridin-3-ylmethyl)-dimethyl-amine] were, in that order, 200 to 1000 nM and less than 200 nM.
In the same order, the values of `Fc1cccc(-c2cnoc2-c2c[nH]c3ncc(-c4cncnc4)cc23)c1F` [Compound 85, 3-[4-(2,3-Difluoro-phenyl)-isoxazol-5-yl]-5-pyrimidin-5-yl-1H-pyrrolo[2,3-b]pyridine] are 1000 to 12500 nM and 1000 to 12500 nM.
Regarding `Nc1cccc(-c2cnc3[nH]cc(-c4oncc4-c4cccc(F)c4F)c3c2)c1` [Compound 86, 3-{3-[4-(2,3-Difluoro-phenyl)-isoxazol-5-yl]-1H-pyrrolo [2,3-b]pyridin-5-yl}-phenylamine], the Ki in test [1] was less than 200 nM; in test [2] it was < 200 nM and 1000 to 12500 nM.
For `Oc1cccc(-c2cnc3[nH]cc(-c4oncc4-c4cccc(F)c4F)c3c2)c1` [Compound 87, 3-{3-[4-(2,3-Difluoro-phenyl)-isoxazol-5-yl]-1H-pyrrolo [2,3-b]pyridin-5-yl}-phenol], the Ki in test [1] lay within 1000 to 12500 nM; in test [2], 200 to 1000 nM.
In the same order, the values of `CN(C)c1ccc(-c2cnc3[nH]cc(-c4oncc4-c4cccc(F)c4F)c3c2)cc1` [Compound 88, (4-{3-[4-(2,3-Difluoro-phenyl)-isoxazol-5-yl]-1H-pyrrolo[2,3-b]pyridin-5-yl}-phenyl)-dimethyl-amine] are 200 to 1000 nM and less than 200 nM.
The like results for `Nc1ccc(-c2cnc3[nH]cc(-c4oncc4-c4cccc(F)c4F)c3c2)cc1` [Compound 90, 4-{3-[4-(2,3-Difluoro-phenyl)-isoxazol-5-yl]-1H-pyrrolo [2,3-b]pyridin-5-yl}-phenylamine] were, in that order, less than 200 nM and less than 200 nM.
In the same order, the values of `CN(C)Cc1ccc(-c2cnc3[nH]cc(-c4oncc4-c4cccc(F)c4F)c3c2)cc1` [Compound 91, (4-{3-[4-(2,3-Difluoro-phenyl)-isoxazol-5-yl]-1H-pyrrolo[2,3-b]pyridin-5-yl}-benzyl)-dimethyl-amine] are 1000 to 12500 nM and 200 to 1000 nM.
In the case of `Fc1cccc(-c2cnoc2-c2c[nH]c3ncc(-c4ccc(CN5CCOCC5)cc4)cc23)c1F` [Compound 92, 3-[4-(2,3-Difluoro-phenyl)-isoxazol-5-yl]-5-(4-morpholin-4-ylmethyl-phenyl)-1H-pyrrolo[2,3-b]pyridine], the Ki in test [1] and in test [2] was 200 to 1000 nM in each case.
As for `Fc1cccc(-c2cnoc2-c2c[nH]c3ncc(-c4ccc(CN5CCCC5)cc4)cc23)c1F` [Compound 93, 3-[4-(2,3-Difluoro-phenyl)-isoxazol-5-yl]-5-(4-pyrrolidin-1-ylmethyl-phenyl)-1H-pyrrolo[2,3-b]pyridine], the Ki was 200 to 1000 nM in test [1] and less than 200 nM in test [2].
The like results for `CN1CCN(Cc2ccc(-c3cnc4[nH]cc(-c5oncc5-c5cccc(F)c5F)c4c3)cc2)CC1` [Compound 94, 3-[4-(2,3-Difluoro-phenyl)-isoxazol-5-yl]-5-[4-(4-methyl-piperazin-1-ylmethyl)-phenyl]-1H-pyrrolo[2,3-b]pyridine] were, in that order, 200 to 1000 nM and less than 200 nM.
The like results for `CC(=O)Nc1ccc(-c2cnc3[nH]cc(-c4oncc4-c4cccc(F)c4F)c3c2)cc1` [Compound 95, N-(4-{3-[4-(2,3-Difluoro-phenyl)-isoxazol-5-yl]-1H-pyrrolo[2,3-b]pyridin-5-yl}-phenyl)-acetamide] were, in that order, 1000 to 12500 nM and 200 to 1000 nM.
In the same order, the values of `COc1cncc(-c2cnc3[nH]cc(-c4oncc4-c4cccc(F)c4F)c3c2)c1` [Compound 96, 3-[4-(2,3-Difluoro-phenyl)-isoxazol-5-yl]-5-(5-methoxy-pyridin-3-yl)-1H-pyrrolo[2,3-b]pyridine] are 200 to 1000 nM and less than 200 nM.
Consider `CS(=O)(=O)n1ccc2cc(-c3cnc4[nH]cc(-c5oncc5-c5cccc(F)c5F)c4c3)cnc21` [Compound 97, 3′-[4-(2,3-Difluoro-phenyl)-isoxazol-5-yl]-1-methanesulfonyl-1H, 1′H-[5,5′]bi[pyrrolo[2,3-b]pyridinyl]], for which the Ki in test [1] and in test [2] was less than 200 nM throughout.
